Measured values taken from US7803757B2, “Peptides based on the sequence of human lactoferrin and their use” (PharmaSurgics in Sweden AB, priority 1998, dated 2010).
Square brackets hold non-standard residues; d marks the D form. Ends that are not written are not given here. Nle = CCCC[C@H](N)C(=O)O

Key:
[1] = test system: E. coli O14; assay: bactericidal activity against E. coli O14, comparison with EP-A-0 629 347 peptides (Example 7); format: cell-based; settings: E. coli O14, I: serial dilutions of tenfold steps
Experimental: (§1) In this example an in vitro test was performed to compare the bactericidal and fungicidal activity of the peptides according to the invention with peptides described in EP-A-0 629 347. The peptide according to the invention used was peptide 4, and the peptides according to EP-A-0 629 347 called Morinaga 10, Morinaga 11, Morinaga 12, and Morinaga 13.
(§2) The peptides were incubated with E. coli O14 and Candida albicans. Two concentrations of C. albicans yeast cells were tested, 5·10^6 and 5·10^3 per ml. Different concentrations of the peptides were tested.
(§3) After the incubation, samples were taken for bacterial plating. Serial dilutions of tenfold steps were used in the experiments marked with I in table 5 and of twofold steps in the experiments marked with II.

[2] = test system: Candida albicans; assay: fungicidal activity against Candida albicans, comparison with EP-A-0 629 347 peptides (Example 7); format: cell-based; settings: C. albicans, I (tenfold steps)
Experimental: as §1, §2, §3

[3] = test system: E. coli; assay: MMC99% of modified peptides, E. coli (Example 26); format: cell-based; settings: BHI diluted 1/100, pH approximately 6.7-6.9 (Table 22)
Experimental: (§4) In the examples, the minimal microbicidal concentrations (MMC) and minimal inhibitory concentrations (MIC) were determined as follows, unless otherwise specified in the examples. Bacterial or fungal strains were cultured in BHI medium over night at 37° C. A volume of the culture was transferred to a new tube with BHI and incubated for two more hours. Thereafter the cells were spun down and the pellet was suspended in BHI medium diluted 1/100 (1% BHI). The concentration of bacterial or fungal cells was spectrophotometrically determined at 650 nm. The microbial concentrations were also determined by viable counts. Peptides serially diluted in 1% BHI by twofold or tenfold steps were added in triplicate to the wells of a microtiterplate (200 μl per well). The bacterial or fungal cell solutions were added in 10 μl volumes to give a final concentration of approximately 1-5×10^5 cells per ml in the well. The microplate was incubated at 37° C. in a humid chamber for two hours. Thereafter 5 μl was taken from each well and added as a drop onto a blood agar plate and incubated over night at 37° C. The microplate was incubated for another 20 hours at 37° C. and thereafter analysed spectrophotometrically at 650 nm in a microplate reader (Emax, Molecular Devices, USA). The concentration of peptide causing a 99% reduction of the inoculum after 2 hours of incubation was defined as the MMC99%. The MIC value was defined as the concentration giving no increase in the absorbance value above the background level after 20 hours of incubation.
(§5) In this example the fungicidal, and bactericidal effects of the different peptides obtained in example 22 were studied. C. albicans, E. coli and S. aureus, respectively, were incubated in BHI medium diluted 1/100, with a pH of approximately 6.7-6.9. The concentration of each peptide needed to kill 99% of the microorganisms (MMC99%) was determined.

[4] = test system: C. albicans; assay: MMC99% of modified peptides, C. albicans (Example 26); format: cell-based; settings: BHI diluted 1/100, pH approximately 6.7-6.9 (Table 22)
Experimental: as §4, §5

[5] = test system: S. aureus; assay: MMC99% of modified peptides, S. aureus (Example 26); format: cell-based; settings: BHI diluted 1/100, pH approximately 6.7-6.9 (Table 22)
Experimental: as §4, §5

[6] = test system: E. coli O6K5; assay: microbicidal activity MMC99%, E. coli O6K5 (Example 28); format: cell-based; settings: E. coli O6K5 (Table 24)
Experimental: as §4
(§6) In this example the microbicidal activity of eight of the peptides according to the invention was studied, and tested against E. coli O6K5 and C. albicans.
(§7) The concentration of each peptide needed to kill 99% of the microorganisms (MMC99%) was determined.

[7] = test system: C. albicans; assay: MMC99% of modified peptides, C. albicans (Example 25); format: cell-based; settings: BHI diluted 1/100, pH approximately 6.7-6.9 (Table 21)
Experimental: as §4
as §5, with “examples 18-21” for “example 22”

[8] = test system: S. aureus; assay: MMC99% of modified peptides, S. aureus (Example 25); format: cell-based; settings: BHI diluted 1/100, pH approximately 6.7-6.9 (Table 21)
Experimental: as §4
as §5, with “examples 18-21” for “example 22”

[9] = test system: C. albicans; assay: microbicidal activity MMC99%, C. albicans (Example 28); format: cell-based; settings: C. albicans (Table 24)
Experimental: as §4, §6, §7

[10] = test system: E. coli; assay: MMC99% of modified peptides, E. coli (Example 25); format: cell-based; settings: BHI diluted 1/100, pH approximately 6.7-6.9 (Table 21)
Experimental: as §4
as §5, with “examples 18-21” for “example 22”

[11] = test system: C. albicans (ATCC 64549); assay: microbe, parasite or virus in culture
Experimental: as §4
In this example the fungicidal activity of one of the peptides according to the invention, the peptide with SEQ. ID. NO. 7, was compared to the conventional antifungal agents flucytosine and fluconazole, and also to human lactoferrin (hLF). The antifungal agents were tested on C. albicans (ATCC 64549) in a concentration of 2×10^5 cells/ml. The tests were performed in BHI medium diluted 1/100.

| Compound | MMC99% [3] | MMC99% [4] | MMC99% [5] | also measured |
| --- | --- | --- | --- | --- |
| F-Q-W-Q-R [Morinaga 11] | – | – | – | Concentration of agent for 100% killing [1]: >500 µg/mL; Concentration of agent for 100% killing ([2]; 5 · 10^3 yeast cells per ml): >2000 µg/mL; Concentration of agent for 100% killing ([2]; 5 · 10^6 yeast cells per ml): >2000 µg/mL |
| C-F-A-L-K-K-A-M-K-K-V-R (CFALKKAMKKVR) [SEQ. ID. NO. 96] | 6 | 12 | 12 | – |
| C-F-Q-W-Nle-R-N-M-R-K-V-R (CFQW[Nle]RNMRKVR) [SEQ. ID. NO. 88] | – | – | – | MMC99% [6]: 5; MMC99% [7]: 6; MMC99% [8]: 3.5; MMC99% [9]: 10; MMC99% [10]: 12 |
| SEQ. ID. NO. 97: listed under the third and fourth embodiments; sequence only in the appended sequence listing (CFALKKAMKKVR) | 6 | 12 | 6 | – |
| C-F-Q-L-Q-K-N-M-K-K-V-R (CFQLQKNMKKVR) [SEQ. ID. NO. 95] | 6 | 12 | 6 | – |
| OC(Cn1cncn1)(Cn1cncn1)c1ccc(F)cc1F [Fluconazole, fluconazole, reference compound] | – | – | – | MMC99% ([11]; C. albicans ATCC 64549, 2×10^5 cells/ml, BHI diluted 1/100): >500 µg/mL; MIC ([11]; Candida albicans, ATCC64549): > 500 mg/L |
| C-F-Q-W-K-R-N-M-R-K-V-R (CFQWKRNMRKVR) [SEQ. ID. NO. 91] | 6 | 6 | 6 | MMC99% [6]: 5; MMC99% [9]: 5 |
